We go through 90 substances from patent US20240207422A1, “NERVE TARGETING PEPTIDE CONJUGATES AND METHODS OF USE” (Alume Biosciences, Inc., priority 2022, published 2024).

For the first experiment, the system named is excised human nerve tissue. Briefly: Phage display selection on excised human nerve tissue (Nerve2, Nerve3), NextGen sequence counts. The experiment is classed as binding. The note with it: unique sequence count (relative enrichment); peptides common to Nerve2, Nerve3 and Plated Nerve 2 sets. The procedure: Several m13 phage libraries were constructed expressing randomized variants of a parent peptide (QVPWEEPYYVVKKS-SGGL; SEQ ID NO: 576). In particular, the first 14 amino acids of the parent peptide were randomized using degenerate oligonucleotide synthesis to obtain a diverse set of peptides with a mutation rate of about 50% per residue.
To accomplish this, synthesis was carried out by the XXK codon design approach, where X is any base and K is G or T. To bias synthesis towards the parent sequence, synthesis was carried out at each X position with a mixture of about 70%-85% of the parent nucleotide and 15-30% of the remaining 3 nucleotides. The resulting molecules were inserted into fADL-1e (Antibody Design Laboratories), which is a type 3 phage display vector having a cloning site on the N-terminal side of the full-length gene III protein. The fusion proteins are directed to the periplasm by the PelB leader peptide, which is inserted in the vector […].
Collectively, the phage display libraries used in the screens comprised about 600 million peptides, with sequencing analysis confirming a mutation rate of about 50% per residue.
Phage libraries were independently processed, as follows, with five biological samples: two independent samples of excised human nerve tissue, one sample of a human nerve extract, and two independent samples of human muscle tissue, as follows:
Excised Human Nerve Tissue: For each of the two independent samples, phage were processed through multiple cycles of selection, with representative phage being isolated and sequenced after each selection cycle. Specifically, for selection using human nerve tissue, a sample of […] tissue (2 mm by 2 mm) was washed prior to mixing and incubation with a phage library. After incubation, the mixture (containing mostly intact nerves with phage particles that had variable affinity for nerves) was centrifuged and the nerve pellet washed multiple times with PBS to remove phage with little or no affinity for nerve tissue. The pellet was homogenized and plated for titering and reamplification. Phage that were bound at each round were sequenced. NextGen sequencing of pools after 2, 3 and 4 rounds of selection were used to isolate candidate sequences that were further analyzed using bioinformatics.
NextGen sequencing of pools after 2, 3 and 4 rounds of selection were used to isolate candidate sequences from each of the five samples. These five data sets were then analyzed as described in the next section.
Peptide and vector sequences were translated starting at the first start codon in the nucleotide sequence. […] Trimmed peptides with identical sequences were combined and quantified according to their frequency (count).
Following processing, an R script was written to merge the unique peptide sequences (with counts 6 or greater) from the 5 different data sets to analyze the overlap between nerve and muscle binding activity.
For the single Nerve2, Nerve3, and Plated Nerve2 (pn2) subsets, the number of counts for each group was set at a threshold giving rise to at least 100 peptides. […] As highlighted in yellow in FIG. 1B, the representative group also included 6 unique peptides overlapping between nerve2 and nerve3, 200 unique peptides overlapping between nerve2 and plated nerve2 (at least 60 counts), 4 unique peptides overlapping between nerve3 and plated nerve2. Finally, as highlighted in green in FIG. 1B, the representative group also included […] common to the nerve2, nerve3, and plated nerve2 sets.
Regarding 1 (TIPYAEPYYVVRKY) [compound 1], the Count is on record as 711.
The same measure, in the same setting: the result for 2 (DFTMQEPYYAEKKT) [compound 2] reads 593.
Same read-out and setting: the result for 3 (HVTWQEQYYVLKTP) [compound 3] reads 371; that for 4 (HVPGVDPYSVVKKF) [compound 4], 368.
On the same count and under the same terms, in the case of 5 (HVAFEQPDNVLVLY) [compound 5] it was 357; in that of 6 (QVPTEVQFYLVKEP) [compound 6], 337; in that of 7 (QLPSEQPCCVVKKY) [compound 7], 329.
For the substance 8 (QDPWVTRYYIVKKS) [compound 8], the Count is given as 304.
9 (QVPAKEPYNFMKKS) [compound 9] yielded a Count of 299.
Still for that read-out and setting: in the case of 10 (YLTWEEPEHVNKQS) [compound 10] it was 272; in that of 11 (QVPRQELYYVSHQF) [compound 11], 245; in that of 12 (QHPFEQSFYVVNKF) [compound 12], 227.
With 13 (DILLDELRFAEKHG) [compound 13], the Count is recorded as 203.
Same read-out and setting: in the case of 14 (YNLWDAPSYLVKNS) [compound 14] it was 201; in that of 15 (HVAGGERYFSVKES) [compound 15], 185; in that of 16 (HLPSDQPLSVTKIS) [compound 16], 173.
The same measure, in the same setting: the result for 17 (GFLGEEPYHFLAKR) [compound 17] reads 167; that for 18 (LRSTADAHYTLKKS) [compound 18], 152; that for 19 (ATPCSQPCAVVPKF) [compound 19], 142.
The same measure, in the same setting: in the case of 20 (QYAWEEPYYLEKKL) [compound 20] it was 140; in that of 21 (HLPVEYPFYVFKNS) [compound 21], 131; in that of 22 (RGSLEGPFKLGKTH) [compound 22], 130.
Substance 23 (QVSSQEPNFIVKNN) [compound 23] displayed a Count of 116.
The same measure, in the same setting: the result for 24 (HFSAYEQYYVLRNS) [compound 24] reads 111.
25 (YVIKYAPYYAVTRS) [compound 25] came in with a Count of 93.
The same measure, in the same setting: the result for 26 (HLPEEELYTIVRKT) [compound 26] reads 85.
Still for that read-out and setting: in the case of 27 (QDPCVWPYNGVKKC) [compound 27] it was 79; in that of 28 (HVHWDATYYAVTNS) [compound 28], 77.
On the same count and under the same terms, the result for 29 (QFPYDHKNYVVKYS) [compound 29] reads 69; that for 30 (RFHMVGPYNVATTS) [compound 30], 68.

The same experiment, now with this note: unique sequence count (relative enrichment); peptides overlapping between Nerve2 and Nerve3.
In the case of 31 (HLPWEGQLNIGNKS) [compound 31], the Count stood at 357.
The same measure, in the same setting: in the case of 32 (DDLWQDLYGVVKKS) [compound 32] it was 106; in that of 33 (NLAWAESKFLLEKI) [compound 33], 71; in that of 34 (QLRYQEHYYLGYNS) [compound 34], 56.
On the same count and under the same terms, in the case of 35 (YVPWQEPYYVQKNL) [compound 35] it was 49; in that of 36 (LVPWDETHKVVQRH) [compound 36], 14.

Still in this experiment, the particulars now being: unique sequence count (relative enrichment); peptides overlapping between Nerve2 and Plated Nerve2.
41 (HSYREEPYYFGKRS) [compound 41] registered a Count of 632.
The same measure, in the same setting: in the case of 42 (QHTWKEPYNGQKRT) [compound 42] it was 577; in that of 43 (QLPMGGPYERVNNT) [compound 43], 380; in that of 44 (SVPKVHPYYVVNNS) [compound 44], 333.
Same read-out and setting: the result for 45 (QVPTGEPLYPVQKT) [compound 45] reads 323.
As for 46 (QLPSYQAHDVMKVH) [compound 46], the Count is recorded as 308.
On the same count and under the same terms, the result for 47 (QIPSQRPSSVGAIA) [compound 47] reads 292; that for 48 (QFPGDERYYLATST) [compound 48], 283.
Same read-out and setting: in the case of 49 (HVSSQEPYYVLRNS) [compound 49] it was 252.
As for 50 (RLPSDDHNTFGTRS) [compound 50], the Count was found to be 249.
On the same count and under the same terms, in the case of 51 (QLHGDELLSVVKNP) [compound 51] it was 232.
Still for that read-out and setting: the result for 52 (ATEWEESYFHVKKF) [compound 52] reads 223.
The same measure, in the same setting: the result for 53 (RVPWEQSSWVVKRS) [compound 53] reads 220; that for 54 (QIANKEPHTYVENS) [compound 54], 213; that for 55 (QIRSEVTHSVVRES) [compound 55], 213.
In turn, 56 (QHTLNHPYSVVKTS) [compound 56] showed a Count of 205.
Still for that read-out and setting: in the case of 57 (QVPSHELYFRPKES) [compound 57] it was 204.
Same read-out and setting: the result for 58 (EVPGGVPYYPMKKF) [compound 58] reads 201; that for 59 (HVSGGQWVHGQKNS) [compound 59], 200; that for 60 (HVPSKQMNSLAKKS) [compound 60], 196.
The same measure, in the same setting: the result for 61 (QIHFGEPNYVVKKS) [compound 61] reads 194; that for 62 (QFPWEGSYYTAKQS) [compound 62], 193; that for 63 (QIPWGEAYQAEKIT) [compound 63], 191.
As to 64 (VVPSNAQHLAPNMS) [compound 64], the Count is on record as 191.
As for 65 (HVAEAESYNVVKKT) [compound 65], the Count was 187.
The same measure, in the same setting: the result for 66 (QIPCEGPYSGVQMC) [compound 66] reads 186; that for 67 (HITGGVPYPVVRDS) [compound 67], 185.
On the same count and under the same terms, the result for 68 (HVLWEDSSYHVTHH) [compound 68] reads 179; that for 69 (HVTYDEQKYFVKKS) [compound 69], 179.
The same measure, in the same setting: the result for 70 (QVPSVQPYYIGKNT) [compound 70] reads 175.
In the case of 71 (QARFEQPYSGLRDS) [compound 71], the Count turned out to be 167.
As for 72 (LIPSAYPHSLWSKS) [compound 72], the Count amounted to 166.
Same read-out and setting: in the case of 73 (QLRSNEAYHVVKKS) [compound 73] it was 166.
Same read-out and setting: in the case of 74 (QTQMQEPKYGVSHS) [compound 74] it was 163; in that of 75 (DVRWDEPYYVDEKI) [compound 75], 161; in that of 76 (HVPRVEPYNVVTNY) [compound 76], 158.
77 (QFPGQALSFVHEKS) [compound 77] returned a Count of 152.
The same measure, in the same setting: in the case of 78 (HFPSKALNNTAKNT) [compound 78] it was 151; in that of 79 (QFPPEQPYGLANKS) [compound 79], 150.
Still for that read-out and setting: in the case of 80 (HVPWAGRHYVAKHS) [compound 80] it was 149; in that of 81 (RVAIDELYLIAHKS) [compound 81], 147.
The substance 82 (QIPEQQPYNVFKKS) [compound 82] came in with a Count of 142.
Still for that read-out and setting: in the case of 83 (SIPGEDSLYAVTEH) [compound 83] it was 142; in that of 84 (QCPSEQPNYVCKIF) [compound 84], 140.
The same measure, in the same setting: in the case of 85 (HGQTQEPSYVTVYY) [compound 85] it was 139; in that of 86 (HVHWQVPSNIVRNS) [compound 86], 139; in that of 87 (QLPWYEADYRMEYY) [compound 87], 139.
For 88 (QLPSQAQNYYVTAS) [compound 88], the Count came to 137.
Still for that read-out and setting: the result for 89 (QVTSEEHYFAVKKF) [compound 89] reads 136; that for 90 (TSLSGAPFHNANTF) [compound 90], 134.

Staying with this experiment, now noted: unique sequence count (relative enrichment); peptides overlapping between Nerve3 and Plated Nerve 2.
On to 37 (HVALEQPYYAVKES) [compound 37], for which the Count was found to be 342.
Same read-out and setting: in the case of 38 (QVQCKEQYYGVTNC) [compound 38] it was 195.
The same measure, in the same setting: the result for 39 (QALYAEPAYVSKKF) [compound 39] reads 19; that for 40 (HVSMDERYYVVKKT) [compound 40], 17.
